Measured values as given in US6191138A, “Phenanthridines” (Byk Gulden Lomberg Chemische Fabrik GmbH, priority 1996, dated 2001).

The compounds below were run on PDE IV (assay: Inhibition of PDE IV Activity (method of Bauer and Schwabe, adapted to microtiter plates)).
Assay type: biochemical

Going from `COC(=O)c1ccc(C2=N[C@H]3CCCC[C@H]3c3cc(OC)c(OC)cc32)cc1` (racemic) [Compound 1, (+/ -)-cis-8,9-dimethoxy-6-[4-(methoxycarbonyl)phenyl]-1,2,3,4,4a,10b-hexahydrophenanthridine] to `COC(=O)c1ccc(C2=N[C@H]3CCCC[C@@H]3c3cc(OC)c(OC)cc32)cc1` (racemic) [Compound 8, (+/ -)-trans-8,9-dimethoxy-6-[4-(methoxycarbonyl)phenyl]-1,2,3,4,4a,10b-hexahydrophenanthridine], the “-log IC50 (Inhibition of PDE IV Activity)” value falls from 7.39 to 5.92.

`CCOc1cc2c(cc1OCC)[C@@H]1CCCC[C@@H]1N=C2c1ccc(C(=O)OC)cc1` (racemic) [Compound 2, (+/ -)-cis-8,9-diethoxy-6-[4-(methoxycarbonyl)phenyl]-1,2,3,4,4a,10b-hexahydrophenanthridine] and `CCOc1cc2c(cc1OC)C(c1ccc(C(=O)OC)cc1)=N[C@H]1CCCC[C@@H]21` (racemic) [Compound 4, (+/ -)-cis-9-ethoxy-8-methoxy-6-[4-(methoxycarbonyl)phenyl]-1,2,3,4,4a,10b-hexahydrophenanthridine] are within 0.2 log units of each other in “-log IC50 (Inhibition of PDE IV Activity)” value: 8.84 for the first, 8.73 for the second.

`COC(=O)c1ccc(C2=N[C@H]3CCCC[C@H]3c3cc(OC(F)F)c(OC)cc32)cc1` (racemic) [Compound 3, (+/ -)-cis-9-difluoromethoxy-8-methoxy-6-[4-(methoxycarbonyl)phenyl]-1,2,3,4,4a ,10b-hexahydrophenanthridine] and `COc1cc2c(cc1OC(F)F)[C@@H]1CCCC[C@@H]1N=C2c1ccc(C(=O)O)cc1.Cl` (racemic) [Compound 19, (+/ -)-cis-6-(4-carboxyphenyl)-9-difluoromethoxy-8-methoxy-1,2,3,4,4a,10b-hexahydrophenanthridine hydrochloride] are within 0.2 log units of each other in “-log IC50 (Inhibition of PDE IV Activity)” value: 7.73 for the first, 7.55 for the second.

Compared with `CCOc1cc2c(cc1OC)[C@@H]1CCCC[C@@H]1N=C2c1ccc(C(=O)OC)cc1` (racemic) [Compound 5, (+/ -)-cis-8-ethoxy-9-methoxy-6-[4-(methoxycarbonyl)phenyl]-1,2,3,4,4a,10b-hexahydrophenanthridine], `CCOc1cc2c(cc1OCC)[C@@H]1CCCC[C@@H]1N=C2c1ccc(C(=O)OC)cc1` (single isomer, unassigned) [Compound 9, (-)-cis-8,9-diethoxy-6-[4-(methoxycarbonyl)phenyl]-1,2,3,4,4a,10b-hexahydrophenanthridine] is higher in “-log IC50 (Inhibition of PDE IV Activity)” value: 7.02 for the first, 8.52 for the second.

Going from `CCOc1cc2c(cc1OCC)[C@@H]1CCCC[C@@H]1N=C2c1cccc(C(=O)OC)c1` (racemic) [Compound 6, (+/-)-cis-8,9-diethoxy-6-[3-(methoxycarbonyl)phenyl]-1,2,3,4,4a ,10b-hexahydrophenanthridine] to `CCOc1cc2c(cc1OCC)[C@@H]1CCCC[C@@H]1N=C2c1cccc(C(=O)O)c1.Cl` (racemic) [Compound 18, (+/ -)-cis-6-(3-carboxyphenyl)-8,9-diethoxy-1,2,3,4,4a,10b-hexahydrophenanthridine hydrochloride], the “-log IC50 (Inhibition of PDE IV Activity)” value falls from 8.14 to 7.69.

First: CCOc1cc2c(cc1OCC)[C@@H]1CCCC[C@@H]1N=C2c1ccccc1C(=O)OC (racemic) [Compound 7, (+/ -)-cis-8,9-diethoxy-6-[2-(methoxycarbonyl)phenyl]-1,2,3,4,4a,10b-hexahydrophenanthridine]
Second: CCOc1cc2c(cc1OCC)[C@@H]1CCCC[C@@H]1N=C2c1ccc(C(=O)OC)cc1 (single isomer, unassigned) [Compound 10, (+)-cis-8,9-diethoxy-6-[4-(methoxycarbonyl)phenyl]-1,2,3,4,4a,10b-hexahydrophenanthridine]
The “-log IC50 (Inhibition of PDE IV Activity)” value of the first is lower: 6.34 for the first, 7.48 for the second.

`COc1cc2c(cc1OC)[C@@H]1CCCC[C@@H]1N=C2c1ccc(C(=O)OCC2CC2)cc1` (racemic) [Compound 13, (+/ -)-cis-8,9-dimethoxy-6-[4-(cyclopropylmethoxycarbonyl)phenyl]-1,2,3,4,4a ,10b-hexahydrophenanthridine] and `COC(=O)c1ccc(C2=N[C@H]3CCCC[C@H]3c3cc(OC)c(OC)cc32)cc1` (single isomer, unassigned) [Compound 11, (-)-cis-8,9-dimethoxy-6-[4-(methoxycarbonyl)phenyl]-1,2,3,4,4a,10b-hexahydrophenanthridine] are within 0.2 log units of each other in “-log IC50 (Inhibition of PDE IV Activity)” value: 7.39 for the first, 7.52 for the second.

First: CCOc1cc2c(cc1OCC)[C@@H]1CCCC[C@@H]1N=C2c1ccc(C(=O)O)cc1.Cl (racemic) [Compound 14, (+/ -)-cis-6-(4-carboxyphenyl)-8,9-diethoxy-1,2,3,4,4a,10b-hexahydrophenanthridine hydrochloride]
Second: CCOc1cc2c(cc1OC)C(c1ccc(C(=O)O)cc1)=N[C@H]1CCCC[C@@H]21.Cl (racemic) [Compound 16, (+/ -)-cis-6-(4-carboxyphenyl)-9-ethoxy-8-methoxy-1,2,3,4,4a,10b-hexahydrophenanthridine hydrochloride]
The “-log IC50 (Inhibition of PDE IV Activity)” value of the first is lower: 8.27 for the first, 8.66 for the second.

`COc1cc2c(cc1OC)[C@@H]1CCCC[C@@H]1N=C2c1ccc(C(=O)O)cc1.Cl` (racemic) [Compound 15, (+/ -)-cis-6-(4-carboxyphenyl)-8,9-dimethoxy-1,2,3,4,4a,10b-hexahydrophenanthridine hydrochloride] and `CCOc1cc2c(cc1OC)[C@@H]1CCCC[C@@H]1N=C2c1ccc(C(=O)O)cc1.Cl` (racemic) [Compound 17, (+/ -)-cis-6-(4-carboxyphenyl)-8-ethoxy-9-methoxy-1,2,3,4,4a,10b-hexahydrophenanthridine hydrochloride] are within 0.2 log units of each other in “-log IC50 (Inhibition of PDE IV Activity)” value: 6.81 for the first, 6.79 for the second.

First: CNC(=O)c1ccc(C2=N[C@H]3CCCC[C@H]3c3cc(OC)c(OC)cc32)cc1 (racemic) [Compound 20, (+/-)-cis-6-[4-(N-methylaminocarbonyl)phenyl]-8,9-dimethoxy-1,2,3,4,4a ,10b-hexahydrophenanthridine]
Second: COC(=O)c1ccc(C2=N[C@H]3CCCC[C@H]3c3cc(OC)c(OC)cc32)cc1 (single isomer, unassigned) [Compound 12, (+)-cis-8,9-dimethoxy-6-[4-(methoxycarbonyl)phenyl]-1,2,3,4,4a,10b-hexahydrophenanthridine]
The “-log IC50 (Inhibition of PDE IV Activity)” value of the first is higher: 5.18 for the first, 4.95 for the second.
